In US20120065187A1 (ALCON RESEARCH, LTD, priority 2008, published 2012):

How the values were obtained:
human H4 = target: T1, human H4 (Homo sapiens, UniProt Q9H3N8); assay: In vitro histamine receptor cell-based assay (aequorin bioluminescence), H4 antagonism; conditions: CHO-K1 cells expressing human H4, aequorin and Gα16; histamine at EC80; read-out: H4 Antagonist EC50
T1 construct: host or cells: CHO-K1
Summary of the method: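 Antagonism read as loss of aequorin luminescence after histamine (EC80 final) addition, following 15 min room-temperature compound pretreatment of coelenterazine-h-loaded (5 μM) CHO-K1 cells co-expressing human H4 and Gα16. Efficacy given relative to 10 μM JNJ7777120; agonism excluded in separate no-histamine runs.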

human H1 = target: T2, human H1 (Homo sapiens, UniProt P35367); assay: In vitro histamine receptor cell-based assay (aequorin bioluminescence), H1 antagonism; conditions: CHO-K1 cells expressing human H1 and aequorin; histamine at EC80; read-out: H1 Antagonist EC50
T2 construct: host or cells: CHO-K1
Summary of the method: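 Antagonism read as drop in aequorin luminescence after histamine challenge at a predetermined EC80, following 15 min compound pretreatment at room temperature. Cells: CHO-K1 carrying human H1, or H4 with Gα16; signal as AUC or amplitude, normalised to 10 μM diphenhydramine (H1) or JNJ7777120 (H4).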

[1] = system: Hartley VAF outbred guinea pigs; assay: Allergic conjunctivitis in passively sensitized guinea pigs (conjunctival EPO activity); format: in vivo; parameters: key: +: a ≦0.1% qd dose was statistically equivalent to dexamethasone with respect to reduction of EPO activity; −: the compound was statistically inferior to dexamethasone and not different than vehicle; conditions: ≦0.1% qd topical, 1 hour prior to ovalbumin challenge; reduction of conjunctival EPO activity vs dexamethasone
Procedure: (§1) Male Hartley VAF outbred guinea pigs were passively sensitized to ovalbumin by a single OD subconjunctival injection of undiluted guinea pig anti-ovalbumin antiserum 24 hours before OD topical challenge with 500 μg ovalbumin in saline. Control animals were injected with saline only and challenged with ovalbumin. To determine acute phase drug efficacy, 30 min after challenge animals were clinically scored by a masked observer for severity of signs of conjunctivitis based on a standard scale. Test compounds were administered topically 1 hour prior to challenge (QD protocol), or 1 hour prior to challenge and again 8 hours after challenge (BID protocol). Twenty-four hours after challenge, animals were euthanized and conjunctivae were harvested for determination of tissue eosinophil peroxidase (EPO) concentration as a marker of allergic inflammation. Homogenates of freshly collected tissues were prepared by shaking the tissues in 2 mL round-bottom tubes containing 0.5 mL of homogenization buffer (50 mM Tris HCl, pH 8.0, 6 mM KBr) and one 5-mm stainless steel bead on a Qiagen TissueLyser at 30 Hz for 5 min. Homogenates were frozen and thawed once, then centrifuged at 10,000 rpm for 5 min. EPO activity in supernatants was measured by reacting diluted homogenates with a solution of 6 mM o-phenylenediamine substrate and 8.8 mM H2O2 in homogenization buffer for 3 min. The reaction was stopped with 4M H2SO4 and absorbances were measured at […] on a spectrophotometric plate reader. Total EPO in samples was calculated from a standard curve of recombinant human EPO in each assay. EPO activity was normalized to total protein concentration (Pierce BCA assay) in supernatants. Background EPO activity was determined from the unsensitized, antigen-challenged control group. Percent inhibition was calculated from the sensitized, antigen-challenged, vehicle-treated control group in each experiment. Ovalbumin-injected animals dosed topically with 0.1% w/v dexamethasone (dex) served as positive control. Groups were compared by ANOVA with Dunnett's or Tukey's post-hoc tests where appropriate with significance assigned at the 95% confidence level.
(§2) The table below summarizes the results.

CD-1 mice = assay: Model of scratching induced by histamine in CD-1 mice (assessment of H4 antagonism); format: in vivo; conditions: 30 mg/kg oral gavage 30 min before i.d. histamine; bouts counted for 20 minutes; female CD-1 mice
Procedure: Assessment of H4 Antagonism—Model of Scratching Induced by Histamine in CD-1 mice.
Female CD-1 mice (Charles River, Hollister, Calif.), approximately 10 weeks old were housed under controlled conditions (12 h light: 12 h dark, 21° C.) and allowed ad libitum access to food (Purina LabDiet 5P14) and water. Animals were deprived of access to food and water for 1 hour during the experimental itch protocol. All studies were performed under the guidelines of the Institutional Animal Care and Use Committee of Kalypsys, Inc.
At least 24 hours prior to study initiation, the hair on the rostral dorsum of the animal was clipped to clear a location for intradermal (i.d.) injection of pruritogen (histamine, dissolved in Dulbecco's PBS [pH 7.4] at a concentration of 10 μmol per 20 μL). Animals were dosed by oral gavage with vehicle (9/0.5/0.5/90 PEG-400/Tween-80/PVP-K30/1% carboxymethylcellulose in water) or test compounds (formulated as suspensions in vehicle) at 30 mg/kg in 200 μL by means of a 20 gauge 1.5″ feeding needle affixed to a 1 mL syringe. There were 8 mice per study group. Thirty minutes after oral dosing, animals were injected i.d. with 20 μL of histamine. Immediately afterward animals were placed into individual sections of a standard acrylic cage for observation, which was recorded digitally for a 20 minute period by video cameras (Panasonic SDR-S70/PC) for later review.
Quantitation of induced itch was measured as described previously (Bell, J. K. et al., British Journal of Pharmacology, 142:374-380, 2004) by counting the number of scratching bouts per animal in the 20 minute period after i.d. injection. A scratching bout was defined as three rapid scratch movements of the hind paw in the area of the injection site. Activity with the fore paws was deemed to be grooming and not scratching, and thus was not counted. All data were analyzed using GraphPad Prism (San Diego, Calif.) software, and reported as mean percentage reduction in scratching bouts versus vehicle control. The significance of antagonist effect on agonist-induced itching was analyzed using the nonparametric Mann-Whitney test with P values <0.05 being designated as statistically significant.
Data reported as NT refers to the example having been not tested. It is expected that these compounds when tested will be active and will have utility similar to those that have been tested. In Table 2 below, entries with superscript “1” are statistically significant according to the criteria outlined in the protocol above. Entries with superscript “2” are examples that have been tested on two separate days and the results reported below are the mean of the two experiments

[2] = system: Hartley VAF outbred guinea pigs; assay: Allergic conjunctivitis in passively sensitized guinea pigs (conjunctival EPO activity); format: in vivo; parameters: key: +: a 0.01% bid dose was statistically equivalent to dexamethasone with respect to reduction of EPO activity; −: the compound was statistically inferior to dexamethasone and not different than vehicle; conditions: 0.01% bid topical, 1 hour prior to and 8 hours after ovalbumin challenge; reduction of conjunctival EPO activity vs dexamethasone
Procedure: as §1, §2

T1 sequence (Q9H3N8 whole entry): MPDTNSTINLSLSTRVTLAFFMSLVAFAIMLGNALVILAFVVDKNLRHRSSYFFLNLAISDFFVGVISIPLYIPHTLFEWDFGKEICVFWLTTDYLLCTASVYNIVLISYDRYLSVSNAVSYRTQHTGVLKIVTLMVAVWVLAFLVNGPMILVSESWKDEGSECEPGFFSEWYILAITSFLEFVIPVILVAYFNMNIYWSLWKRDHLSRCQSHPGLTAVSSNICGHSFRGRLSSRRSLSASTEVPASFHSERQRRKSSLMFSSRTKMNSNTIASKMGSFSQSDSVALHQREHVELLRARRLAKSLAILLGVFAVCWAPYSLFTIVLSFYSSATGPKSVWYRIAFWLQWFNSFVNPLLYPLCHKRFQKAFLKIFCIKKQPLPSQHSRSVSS
T2 sequence (P35367 whole entry): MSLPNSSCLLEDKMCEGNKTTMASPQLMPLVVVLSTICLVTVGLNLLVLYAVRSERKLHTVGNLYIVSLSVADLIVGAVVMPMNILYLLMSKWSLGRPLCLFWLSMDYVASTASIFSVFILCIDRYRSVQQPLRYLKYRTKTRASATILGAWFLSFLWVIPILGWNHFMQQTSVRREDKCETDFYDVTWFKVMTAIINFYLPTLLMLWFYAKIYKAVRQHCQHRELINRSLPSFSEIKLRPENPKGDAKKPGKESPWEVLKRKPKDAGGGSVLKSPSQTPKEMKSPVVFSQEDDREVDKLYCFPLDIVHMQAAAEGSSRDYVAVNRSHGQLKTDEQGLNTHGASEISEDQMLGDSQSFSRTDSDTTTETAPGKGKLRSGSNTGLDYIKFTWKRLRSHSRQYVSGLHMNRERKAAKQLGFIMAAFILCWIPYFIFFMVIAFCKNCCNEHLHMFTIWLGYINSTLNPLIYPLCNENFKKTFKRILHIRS

Row | SMILES | EC50 (human H4) | EC50 (human H1) | QD activity [1] | Scratching Bouts (% change from vehicle control) (CD-1 mice) | BID activity [2]
1 | FC(F)(F)c1ccc2nc(N3CCNCC3)c3nncn3c2c1 [Example 24, 4-(piperazin-1-yl)-8-(trifluoromethyl)-[1,2,4]triazolo[4,3-a]quinoxaline] | < 10 µM | > 10 µM | + |  | 
2 | FC(F)(F)c1cc2c(cc1Cl)nc(N1CCNCC1)c1nncn12 [Example 45, 7-Chloro-4-(piperazin-1-yl)-8-(trifluoromethyl)-[1,2,4]triazolo[4,3-a]quinoxaline] | < 10 µM | > 10 µM | + |  | 
3 | CN1CCN(c2nc3ccc(Cl)cc3c3c[nH]nc23)CC1 [Example 152, 8-Chloro-4-(4-methylpiperazin-1-yl)-2H-pyrazolo[3,4-c]quinoline] | < 10 µM | > 10 µM |  | −13% | −
4 | CN1CCN(c2nc3ccc(Cl)cc3c3conc23)CC1 [Example 166, 8-Chloro-4-(4-methylpiperazin-1-yl)isoxazolo[3,4-c]quinoline] | < 10 µM | > 10 µM | + |  | +
5 | Cc1nc2c3c(F)c(C(F)(F)F)ccc3nc(N3CCN(C)CC3)n2n1.Cl [Example 126, 10-fluoro-2-methyl-5-(4-methylpiperazin-1-yl)-9-(trifluoromethyl)-[1,2,4]triazolo[1,5-c]quinazoline hydrochloride] | < 10 µM | > 10 µM | + |  | 
6 | Cc1nc2c3cc(Cl)ccc3nc(N3CCNCC3)n2n1 [Example 112, 9-Chloro-2-methyl-5-(piperazin-1-yl)-[1,2,4]triazolo[1,5-c]quinazoline] | < 10 µM | > 10 µM |  | −73^1% | 
7 | Cc1nc2c3cc(C(F)(F)F)ccc3nc(N3CCN(C)CC3)n2n1 [Example 103, 2-Methyl-5-(4-methylpiperazin-1-yl)-9-(trifluoromethyl)-[1,2,4]triazolo[1,5-c]quinazoline] | < 10 µM | > 10 µM | + | −37% | 
8 | Clc1ccc2nc(N3CCNCC3)c3nnnn3c2c1 [Example 19, 8-Chloro-4-(piperazin-1-yl)tetrazolo[1,5-a]quinoxaline] | < 10 µM | > 10 µM | + |  | +
9 | Cc1nc2c3cc(C(F)(F)F)cc(F)c3nc(N3CCN(C)CC3)n2n1.Cl [Example 127, 7-fluoro-2-methyl-5-(4-methylpiperazin-1-yl)-9-(trifluoromethyl)-[1,2,4]triazolo[1,5-c]quinazoline hydrochloride] | < 10 µM | > 10 µM | + |  | 
10 | Cc1nc2c(N3CCN(C)CC3)nc3ccc(Cl)cc3n2n1 [Example 165, 8-chloro-2-methyl-4-(4-methylpiperazin-1-yl)-[1,2,4]triazolo[1,5-a]quinoxaline] | < 10 µM | < 10 µM | + |  | +
11 | CN1CCN(c2nc3ccc(Cl)cc3n3nnnc23)CC1 [Example 20, 8-Chloro-4-(4-methylpiperazin-1-yl)tetrazolo[1,5-a]quinoxaline] | < 10 µM | > 10 µM |  | −1% | −
12 | Cc1nc2c3cc(Cl)ccc3nc(N3CCN(C)CC3)n2n1 [Example 113, 9-chloro-2-methyl-5-(4-methylpiperazin-1-yl)-[1,2,4]triazolo[1,5-c]quinazoline] | < 10 µM | > 10 µM |  | −66^1,2% | −
13 | Cl.FC(F)(F)c1ccc2nc(N3CCNCC3)c3nnnn3c2c1 [Example 29, 4-(piperazin-1-yl)-8-(trifluoromethyl)tetrazolo[1,5-a]quinoxaline hydrochloride] | < 10 µM | > 10 µM | + |  | +
